Our source for the IC50 values is patent publication US20250304567A1, “PYRROLIDIONE DERIVATIVES AS INHIBITORS OF NF KAPPA B INDUCING KINASE” (priority 2022, published 2025).

The subject of experiment [1] is p-IKKa levels in L363 (NIK translocated multiple myeloma) cells. Kind of experiment: Effect of compounds on p-IKKa levels in L363 (NIK translocated multiple myeloma) cells (AlphaLISA SureFire Ultra p-IKKa Ser176/180). It counts as cell-based, human. Conditions: Homo sapiens, L-363, p-IKKa levels in L363 cells; average if tested more than once; read-out: Assay 2 IC50. In short, it runs like this: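 L363 multiple myeloma cells, BAFF-stimulated overnight (250 ng/ml), then 6 h at 37 °C with compound (11-point 1:3 series, 0.3% DMSO) plus BAFF and 10 μM MG132. p-IKKa Ser176/180 read by AlphaLISA SureFire Ultra; IC50 from sigmoidal fit normalised to stimulated and unstimulated controls.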
(Alpha assays give light when donor and acceptor beads are brought close together.)

The target in experiment [2] is Recombinant Human NF-kappaB-Inducing Kinase (NIK/MAP3K14) (Homo sapiens, UniProt Q99558). Kind of experiment: Inhibition of auto-phosphorylation of recombinant human NIK/MAP3K14 activity (AlphaScreen). To be noted: 5 μM ATP, 1 nM NIK, average if tested more than once. The format is biochemical. In short, it runs like this: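 GST-tagged NIK (1 nM) auto-phosphorylation with 5 μM ATP, 2 h at 25 °C, pH 7.5 Tris buffer, 0.7% DMSO; stopped with anti-phospho-IKK Ser176/180 antibody and read by AlphaScreen. Signal normalized to full-activity and no-enzyme/no-ATP controls; IC50 from sigmoidal fit of % inhibition vs log concentration.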

Some results are limits rather than exact numbers.

Recombinant Human NF-kappaB-Inducing Kinase (NIK/MAP3K14), sequence (Q99558 whole entry): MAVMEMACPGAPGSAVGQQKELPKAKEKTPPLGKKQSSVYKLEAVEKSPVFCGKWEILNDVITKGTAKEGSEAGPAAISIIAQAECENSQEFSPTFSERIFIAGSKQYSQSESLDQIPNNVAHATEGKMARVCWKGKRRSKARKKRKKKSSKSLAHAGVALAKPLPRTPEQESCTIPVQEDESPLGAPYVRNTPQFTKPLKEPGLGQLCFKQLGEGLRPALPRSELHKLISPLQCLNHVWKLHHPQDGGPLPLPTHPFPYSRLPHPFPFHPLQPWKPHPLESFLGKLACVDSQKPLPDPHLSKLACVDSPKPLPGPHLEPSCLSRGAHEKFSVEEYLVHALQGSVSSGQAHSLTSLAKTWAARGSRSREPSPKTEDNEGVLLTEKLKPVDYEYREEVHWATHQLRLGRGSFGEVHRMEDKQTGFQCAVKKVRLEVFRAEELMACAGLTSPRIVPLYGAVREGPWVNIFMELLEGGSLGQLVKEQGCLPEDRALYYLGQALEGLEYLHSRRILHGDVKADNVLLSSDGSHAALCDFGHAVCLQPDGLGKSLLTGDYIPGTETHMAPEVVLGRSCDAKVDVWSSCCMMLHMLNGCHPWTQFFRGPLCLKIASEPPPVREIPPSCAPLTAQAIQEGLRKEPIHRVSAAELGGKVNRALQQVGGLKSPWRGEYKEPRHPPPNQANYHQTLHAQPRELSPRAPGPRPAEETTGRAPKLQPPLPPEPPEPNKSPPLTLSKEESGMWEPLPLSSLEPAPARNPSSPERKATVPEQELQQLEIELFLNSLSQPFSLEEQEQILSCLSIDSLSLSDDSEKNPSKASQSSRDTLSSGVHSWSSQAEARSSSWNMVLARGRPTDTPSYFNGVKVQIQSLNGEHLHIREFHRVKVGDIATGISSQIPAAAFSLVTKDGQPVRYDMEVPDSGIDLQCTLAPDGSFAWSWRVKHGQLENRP

For orientation: IC50 means the concentration at which inhibition is half-maximal. For the compound `CN1CC[C@@](O)(c2cccc(-c3nc(-c4ccnc(NCCCN5CCOCC5)n4)cs3)c2)C1=O` [Example 246], the IC50 in experiment [1] and in experiment [2] was above 501 nM throughout.

Take `Cc1csc(Nc2nccc(-c3csc(-c4cccc([C@]5(O)CCN(C)C5=O)c4)n3)n2)n1` [Example 247]: the IC50 in experiment [1] was 100 to 500 nM; in experiment [2], below 100 nM.

On to `CN1CC[C@@](O)(c2cccc(-c3nc(-c4ccnc(Nc5nc(C(F)(F)F)cs5)n4)cs3)c2)C1=O` [Example 248], for which the IC50 in experiment [1] is 100 to 500 nM; in experiment [2], below 100 nM.

Consider `Cc1ncc(Nc2nccc(-c3csc(-c4cccc([C@]5(O)CCN(C)C5=O)c4)n3)n2)s1` [Example 249], for which the IC50 in experiment [1] and in experiment [2] was above 501 nM in each case.

For `CN1CC[C@@](O)(c2cccc(-c3nc(-c4ccnc(N[C@H]5CCOC5)n4)cs3)c2)C1=O` [Example 250], the values for the IC50 in experiment [1] and in experiment [2] were above 501 nM and below 100 nM, respectively.

Consider `CN1CC[C@@](O)(c2cccc(-c3nc(-c4ccnc(N[C@@H]5CCOC5)n4)cs3)c2)C1=O` [Example 251], for which the results for the IC50 in experiment [1] and in experiment [2] were above 501 nM and below 100 nM, respectively.

As for `CN1CC[C@@](O)(c2cccc(-c3nc(-c4ccnc(N[C@H]5CC[C@H](O)C5)n4)cs3)c2)C1=O` [Example 252], the IC50 in experiment [1] was above 501 nM; in experiment [2] it was 100 to 500 nM.

On to `CN1CC[C@@](O)(c2cccc(-c3nc(-c4ccnc(N[C@H]5CC[C@@H](O)C5)n4)cs3)c2)C1=O` [Example 253], for which the IC50 is above 501 nM in experiment [1] and below 100 nM in experiment [2].

Regarding `CN1CC[C@@](O)(c2cccc(-c3nc(-c4ccnc(N[C@H]5CCC[C@H](O)C5)n4)cs3)c2)C1=O` [Example 254], the 50% inhibitory concentration (IC50) in experiment [1] is above 501 nM; in experiment [2] it was 100 to 500 nM.

As for `CN1CC[C@@](O)(c2cccc(-c3nc(-c4ccnc(N[C@H]5CCC[C@@H](O)C5)n4)cs3)c2)C1=O` [Example 255], the IC50 in experiment [1] was above 501 nM; in experiment [2], 100 to 500 nM.

For the compound `CN1CC[C@@](O)(c2cccc(-c3nc(-c4ccnc(Nc5cc(C(F)(F)F)n(C)n5)n4)cs3)c2)C1=O` [Example 256, (R)-3-Hydroxy-1-methyl-3-(3-(4-(2-((1-methyl-5-(trifluoromethyl)-1H-pyrazol-3-yl)amino)pyrimidin-4-yl)thiazol-2-yl)phenyl)pyrrolidin-2-one], the IC50 in experiment [1] is above 501 nM; in experiment [2], below 100 nM.

As to `CN1CC[C@@](O)(c2cccc(-c3nc(-c4ccnc(Nc5ccn(C(F)(F)F)n5)n4)cs3)c2)C1=O` [Example 257, (R)-3-Hydroxy-1-methyl-3-(3-(4-(2-((1-(trifluoromethyl)-1H-pyrazol-3-yl)amino)pyrimidin-4-yl)thiazol-2-yl)phenyl)pyrrolidin-2-one], the figures for the IC50 in experiment [1] and in experiment [2] were above 501 nM and below 100 nM, respectively.

For the compound `CN1CC[C@@](O)(c2cccc(-c3nc(-c4ccnc(Nc5ccn(CC(F)F)n5)n4)cs3)c2)C1=O` [Example 258, (R)-3-(3-(4-(2-((1-(2,2-Difluoroethyl)-1H-pyrazol-3-yl)amino)pyrimidin-4-yl)thiazol-2-yl)phenyl)-3-hydroxy-1-methylpyrrolidin-2-one], the IC50 was 100 to 500 nM in experiment [1] and below 100 nM in experiment [2].

For `CN1CC[C@@](O)(c2cccc(-c3nc(-c4ccnc(Nc5ccn(C6CC6)n5)n4)cs3)c2)C1=O` [Example 259, (R)-3-(3-(4-(2-((1-Cyclopropyl-1H-pyrazol-3-yl)amino)pyrimidin-4-yl)thiazol-2-yl)phenyl)-3-hydroxy-1-methylpyrrolidin-2-one], the IC50 was 100 to 500 nM in experiment [1] and below 100 nM in experiment [2].

As for `COCCn1ccc(Nc2nccc(-c3csc(-c4cccc([C@]5(O)CCN(C)C5=O)c4)n3)n2)n1` [Example 260, (R)-3-Hydroxy-3-(3-(4-(2-((1-(2-methoxyethyl)-1H-pyrazol-3-yl)amino)pyrimidin-4-yl)thiazol-2-yl)phenyl)-1-methylpyrrolidin-2-one], the IC50 in experiment [1] was 100 to 500 nM; in experiment [2], below 100 nM.
